Source: patent publication US9776979B2, “EBI2 modulators” (Sanford-Burnham Medical Research Institute, priority 2013, dated 2017)

Target: EBI2 (Homo sapiens, UniProt P32249)
Assay: Cell-based luminescent assay (EBI2 modulation)
Settings: cell-based luminescence; 7a,25-OHC final assay concentration 80 nM; 60 minutes incubation; read-out: IC50
Description: Cell-Based Luminescent Assay
To assess EBI2 modulation, the compounds described herein were assayed in the following cell-based luminescent assay:
1) Plated 600 cells/well in 4 uL of assay media into columns 1-48 of a 1536-well assay plate, using a liquid dispenser.
2) Centrifuged plates at 1000 rpm for 1 minute and covered with lids.
3) Incubated overnight at 37° C., 100% relative humidity, 5% CO2.
1) Centrifuged compound plates containing compounds described herein at 500 rpm for 1 minute.
2) Added compounds into assay plate col 5-48 to final concentration 4-5 uM. Added matching amount of DMSO to positive and negative control wells in columns 1-4.
3) Dispensed 2 ul/well of assay media to columns 1-2 for the positive control wells.
4) Added 2 ul/well of 400 nM 7a,25-OHC (final assay concentration=80 nM) in assay media to columns 3-48 for the negative control and test compound wells.
5) Centrifuged plates at 1000 rpm for 1 minute and re-lid plates.
6) Incubated plates at 37° C., 100% relative humidity, 5% CO2 for 60 minutes.
7) Following 60 minute incubation, delivered 2.5 uL of Detection Reagent solution to each assay plate (Columns 1-48) using a liquid handler.
8) Centrifuged plates at 2000 rpm for 2 minutes and re-lid plates.
9) Incubated plates for 60 minutes at 25 degrees in the dark.
10) Read plates using the Viewlux, Envision or other suitable plate reader using a luminescence detection.
The experimental values were normalized by the difference between values from neutral and stimulator control wells in each plate. Then normalized data was corrected to remove systematic plate patterns due to artifacts such as dispensing tip issues etc.

EBI2, sequence (P32249 whole entry): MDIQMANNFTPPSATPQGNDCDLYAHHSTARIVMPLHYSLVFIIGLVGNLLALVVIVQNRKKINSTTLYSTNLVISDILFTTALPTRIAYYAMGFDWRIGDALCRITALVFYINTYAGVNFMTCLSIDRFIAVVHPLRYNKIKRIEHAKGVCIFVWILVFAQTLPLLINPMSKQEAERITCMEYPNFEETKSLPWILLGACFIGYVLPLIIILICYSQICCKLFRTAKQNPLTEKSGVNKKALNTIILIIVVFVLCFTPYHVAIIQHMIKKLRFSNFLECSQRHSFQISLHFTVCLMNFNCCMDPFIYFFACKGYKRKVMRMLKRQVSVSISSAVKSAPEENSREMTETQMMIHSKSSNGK

SMILES	IC50 [nM]
O=C(/C=C/c1ccc(Cl)cc1F)N1CCN(C(c2ccccc2)c2ccccc2)CC1 [Compound C40]	< 100
O=C(c1cc2ccc(Cl)cc2s1)N1CCN(C(c2ccccc2)c2ccccc2)CC1 [Compound C45, 4-(diphenylmethyl)piperazinyl 6-chlorobenzo[b]thiophen-2-yl ketone]	< 100
Cc1ccc2[nH]c(C(=O)N3CCN(S(=O)(=O)/C=C/c4ccccc4)CC3)cc2c1 [Compound C48, 4-[((1E)-2-phenylvinyl)sulfonyl]piperazinyl 5-methylindol-2-yl ketone]	< 100
CC(C)CN1CCN(C(=O)/C=C/c2ccc(Br)cc2)CC1 [Compound C52, (2E)-3-(4-bromophenyl)-1-[4-(methylpropyl)piperazinyl]prop-2-en-1-one]	< 100
O=C(c1cc2cc(Cl)ccc2[nH]1)N1CCN(C(c2ccccc2)c2ccccc2)CC1 [Compound C56, 4-(diphenylmethyl)piperazinyl 5-chloroindol-2-yl ketone]	< 100
Cc1ccc2[nH]c(C(=O)N3CCN(S(=O)(=O)CCc4ccccc4)CC3)cc2c1 [Compound C57, 5-methylindol-2-yl 4-[(2-phenylethyl)sulfonyl]piperazinyl ketone]	< 100
Cc1ccc(C#CC(=O)N2CCN(C(c3ccccc3)c3ccccc3)CC2)cc1 [Compound C58, 1-[4-(diphenylmethyl)piperazinyl]-3-(4-methylphenyl)prop-2-yn-1-one]	< 100
COc1ccc(C(=O)N2CCN(C(=O)C#Cc3cccc(Cl)c3)CC2)cc1 [Compound C59, 3-(3-chlorophenyl)-1-{4-[(4-methoxyphenyl)carbonyl]piperazinyl}prop-2-yn-1-one]	< 100
O=C(C#Cc1ccc(C(F)(F)F)cc1)N1CCN(C(=O)c2ccc(Cl)cc2)CC1 [Compound C60, 1-{4-[(4-chlorophenyl)carbonyl]piperazinyl}-3-[4-(trifluoromethyl)phenyl]prop-2-yn-1-one]	< 100
COC(=O)c1ccc(C(=O)N2CCN(C(=O)c3cc4cc(Cl)ccc4[nH]3)CC2)cc1 [Compound C62, methyl 4-({4-[(5-chloroindol-2-yl)carbonyl]piperazinyl}carbonyl)benzoate]	< 100
O=C(C#Cc1ccccc1)N1CCN(C(=O)c2ccc(Br)cc2)CC1 [Compound C65, 1-{4-[(4-bromophenyl)carbonyl]piperazinyl}-3-phenylprop-2-yn-1-one]	< 100
O=C(C#Cc1ccc(C(F)(F)F)cc1)N1CCN(C(c2ccccc2)c2ccccc2)CC1 [Compound C66, 1-[4-(diphenylmethyl)piperazinyl]-3-[4-(trifluoromethyl)phenyl]prop-2-yn-1-one]	< 100
O=C(C#Cc1ccc(F)cc1)N1CCN(C(=O)c2ccc(Cl)cc2)CC1 [Compound C69, 1-{4-[(4-chlorophenyl)carbonyl]piperazinyl}-3-(4-fluorophenyl)prop-2-yn-1-one]	< 100
O=C(c1cc2ccccc2[nH]1)N1CCN(C(c2ccccc2)c2ccccc2)CC1 [Compound C71, 4-(diphenylmethyl)piperazinyl indol-2-yl ketone]	< 100
COc1cc(CN2CCN(C(=O)/C=C/c3ccc(Br)cc3)CC2)cc(OC)c1 [Compound C72, (2E)-1-{4-[(3,5-dimethoxyphenyl)methyl]piperazinyl}-3-(4-bromophenyl)prop-2-en-1-one]	< 100
O=C(C#Cc1ccc(Cl)cc1)N1CCN(C(=O)c2ccc(C(F)(F)F)cc2)CC1 [Compound C73, 3-(4-chlorophenyl)-1-(4-{[4-(trifluoromethyl)phenyl]carbonyl}piperazinyl)prop-2-yn-1-one]	< 100
COc1ccc(C(=O)N2CCN(C(=O)C#Cc3ccc(F)cc3)CC2)cc1 [Compound C75, 3-(4-fluorophenyl)-1-{4-[(4-methoxyphenyl)carbonyl]piperazinyl}prop-2-yn-1-one]	< 100
O=C(C#Cc1ccc(C(F)(F)F)cc1)N1CCN(C(=O)c2ccc(F)cc2)CC1 [Compound C76, 1-{4-[(4-fluorophenyl)carbonyl]piperazinyl}-3-[4-(trifluoromethyl)phenyl]prop-2-yn-1-one]	< 100
O=C(c1cc2cc(C(F)(F)F)ccc2[nH]1)N1CCN(C(c2ccccc2)c2ccccc2)CC1 [Compound C79, 4-(diphenylmethyl)piperazinyl 5-(trifluoromethyl)indol-2-yl ketone]	< 100
COC(=O)c1ccc(C(=O)N2CCN(C(=O)c3cc4cc(Br)ccc4[nH]3)CC2)cc1 [Compound C81, methyl 4-({4-[(5-bromoindol-2-yl)carbonyl]piperazinyl}carbonyl)benzoate]	< 100
O=C(C#Cc1ccc(C(F)(F)F)cc1)N1CCN(C(=O)c2ccc(C(F)(F)F)cc2)CC1 [Compound C84, 3-[4-(trifluoromethyl)phenyl]-1-(4-{[4-(trifluoromethyl)phenyl]carbonyl}piperazinyl)prop-2-yn-1-one]	< 100
O=C(c1cnc2cc(F)ccc2c1)N1CCN(C(c2ccccc2)c2ccccc2)CC1 [Compound C86, 4-(diphenylmethyl)piperazinyl 7-fluoro(3-quinolyl) ketone]	< 100
O=C(c1cc2ccccc2o1)N1CCN(C(c2ccccc2)c2ccccc2)CC1 [Compound C87, benzo[d]furan-2-yl 4-(diphenylmethyl)piperazinyl ketone]	< 100
O=C(c1cc2cc(Cl)ccc2[nH]1)N1CCN(S(=O)(=O)CCc2ccccc2)CC1 [Compound C88, 5-chloroindol-2-yl 4-[(2-phenylethyl)sulfonyl]piperazinyl ketone]	< 100
O=C(c1ccc(Cl)cc1)N1CCN(C(=O)c2cc3cc(Cl)ccc3[nH]2)CC1 [Compound C89, 5-chloroindol-2-yl 4-[(4-chlorophenyl)carbonyl]piperazinyl ketone]	< 100
O=C(C#Cc1cccc(Cl)c1Cl)N1CCN(C(=O)c2ccc(F)cc2C(F)(F)F)CC1 [Compound C90, 3-(2,3-dichlorophenyl)-1-(4-{[4-fluoro-2-(trifluoromethyl)phenyl]carbonyl}piperazinyl)prop-2-yn-1-one]	< 100

Results, then the compound that gave them:

IC50 [nM]	SMILES
< 100	Cc1ccc(C#CC(=O)N2CCN(C(=O)c3ccc(F)cc3)CC2)cc1 [Compound C38, 1-{4-[(4-fluorophenyl)carbonyl]piperazinyl}-3-(4-methylphenyl)prop-2-yn-1-one]
< 100	O=C(/C=C/c1ccc(Br)cc1)N1CCN(Cc2ccc(Cl)c(Cl)c2)CC1 [Compound C39, (2E)-1-{4-[(3,4-dichlorophenyl)methyl]piperazinyl}-3-(4-bromophenyl)prop-2-en-1-one]
< 100	Cc1ccc(CN2CCN(C(=O)/C=C/c3ccc(Br)cc3)CC2)cc1 [Compound C41, (2E)-3-(4-bromophenyl)-1-{4-[(4-methylphenyl)methyl]piperazinyl}prop-2-en-1-one]
< 100	O=C(/C=C/c1ccccc1)N1CCN(C(c2ccccc2)c2ccccc2)CC1 [Compound C42, (2E)-1-[4-(diphenylmethyl)piperazinyl]-3-phenylprop-2-en-1-one]
< 100	O=C(/C=C/c1ccc(Br)cc1)N1CCN(C(=O)c2ccc(C(F)(F)F)cc2)CC1 [Compound C44, (2E)-3-(4-bromophenyl)-1-(4-{[4-(trifluoromethyl)phenyl]carbonyl}piperazinyl)prop-2-en-1-one]
< 100	CCCCN1CCN(C(=O)/C=C/c2ccc(Br)cc2)CC1 [Compound C49, (2E)-3-(4-bromophenyl)-1-(4-butylpiperazinyl)prop-2-en-1-one]
< 100	Cc1ccc(C#CC(=O)N2CCN(C(=O)c3ccc(C(F)(F)F)cc3)CC2)cc1 [Compound C53, 3-(4-methylphenyl)-1-(4-{[4-(trifluoromethyl)phenyl]carbonyl}piperazinyl)prop-2-yn-1-one]
< 100	O=C(C#Cc1ccc(Br)cc1)N1CCN(C(=O)c2ccc(Br)cc2)CC1 [Compound C61, 3-(4-bromophenyl)-1-{4-[(4-bromophenyl)carbonyl]piperazinyl}prop-2-yn-1-one]
< 100	O=C(/C=C/c1ccc([N+](=O)[O-])cc1)N1CCN(C(c2ccccc2)c2ccccc2)CC1 [Compound C63, (2E)-1-[4-(diphenylmethyl)piperazinyl]-3-(4-nitrophenyl)prop-2-en-1-one]
< 100	O=C(/C=C/c1ccc(F)cc1)N1CCN(C(c2ccccc2)c2ccccc2)CC1 [Compound C68, (2E)-1-[4-(diphenylmethyl)piperazinyl]-3-(4-fluorophenyl)prop-2-en-1-one]
< 100	O=C(C#Cc1ccc(Br)cc1)N1CCN(C(=O)c2ccc(F)cc2)CC1 [Compound C70, 3-(4-bromophenyl)-1-{4-[(4-fluorophenyl)carbonyl]piperazinyl}prop-2-yn-1-one]
< 100	CCC(C)C(=O)N1CCN(C(=O)/C=C/c2ccc(Br)cc2)CC1 (stereo not drawn) [Compound C78, (2E)-3-(4-bromophenyl)-1-[4-(2-methylbutanoyl)piperazinyl]prop-2-en-1-one]
< 100	O=C(/C=C/c1ccc(Br)cc1)N1CCN(C(=O)C2CCCC2)CC1 [Compound C82, (2E)-3-(4-bromophenyl)-1-[4-(cyclopentylcarbonyl)piperazinyl]prop-2-en-1-one]
